Here are results for one compound from ChEMBL document CHEMBL5154870, “Discovery of novel glutaminase 1 allosteric inhibitor with 4-piperidinamine linker and aromatic heterocycles” (Eur J Med Chem, 2022).

The source made the active and inactive calls. The calls are words filed in the database; no cut-off is given here.

Series [1] deals with HCT-116. As to the kind of experiment: Induction of apoptosis in human HCT-116 cells assessed as necrotic cells at 50 nM measured after 24 hrs by Annexin V-FITC/PI staining based flow cytometry method (reference value: 0.48 %). The series is classed as functional.
The test system of series [2] is H22. As to the kind of experiment: Antiproliferative activity against mouse H22 cells assessed as inhibition of cell proliferation measured after 72 hrs by MTT assay. The conditions noted are these: H22, 72 h. It is filed as functional, cell-based. (In general: Formazan colour is commonly taken as a measure of viable cells.)
Series [3] concerns HCT-116. As to the kind of experiment: Induction of apoptosis in human HCT-116 cells assessed as early apoptotic cells at 200 nM measured after 24 hrs by Annexin V-FITC/PI staining based flow cytometry method (reference value: 4.65 %). The series is classed as functional.
For series [4], the system named is HCT-116. Kind of series: Antitumor activity against human HCT-116 cells xenografted in BALB/c SPF mouse assessed as tumor growth inhibition at 100 mg/kg, ip administered BID for 21 days. The series is classed as functional. The conditions noted are these: Mus musculus, HCT-116, 504 h, time 21 day, read-out: TGI.
The nature of series [5]: Toxicity in BALB/c SPF mouse xenografted with human HCT-116 cells assessed as body weight loss at 50 to 100 mg/kg, ip administered BID for 21 days. The conditions noted are these: in vivo, 504 h, dose 50-100 mg/kg, time 21 day. The series is classed as organism-based. Background: A xenograft is tissue or cells of one species grown in another, often human tumour cells in immunodeficient mice.

Series [6] is described as follows: Half life in Sprague-Dawley rat at 10 mg/kg, ip measured for 72 hrs by LC-MS/MS analysis. It is filed as ADME, organism-based. The conditions noted are these: in vivo.
Series [7] concerns HCT-116. As to the kind of experiment: Induction of apoptosis in human HCT-116 cells assessed as late apoptotic cells at 200 nM measured after 24 hrs by Annexin V-FITC/PI staining based flow cytometry method (reference value: 3.55 %). It is filed as functional. In general terms: In flow cytometry, cells or beads pass a laser one at a time.
Series [8] addresses T1, Glutaminase kidney isoform, mitochondrial (Homo sapiens) (UniProt O94925).
T1 sequence (whole entry): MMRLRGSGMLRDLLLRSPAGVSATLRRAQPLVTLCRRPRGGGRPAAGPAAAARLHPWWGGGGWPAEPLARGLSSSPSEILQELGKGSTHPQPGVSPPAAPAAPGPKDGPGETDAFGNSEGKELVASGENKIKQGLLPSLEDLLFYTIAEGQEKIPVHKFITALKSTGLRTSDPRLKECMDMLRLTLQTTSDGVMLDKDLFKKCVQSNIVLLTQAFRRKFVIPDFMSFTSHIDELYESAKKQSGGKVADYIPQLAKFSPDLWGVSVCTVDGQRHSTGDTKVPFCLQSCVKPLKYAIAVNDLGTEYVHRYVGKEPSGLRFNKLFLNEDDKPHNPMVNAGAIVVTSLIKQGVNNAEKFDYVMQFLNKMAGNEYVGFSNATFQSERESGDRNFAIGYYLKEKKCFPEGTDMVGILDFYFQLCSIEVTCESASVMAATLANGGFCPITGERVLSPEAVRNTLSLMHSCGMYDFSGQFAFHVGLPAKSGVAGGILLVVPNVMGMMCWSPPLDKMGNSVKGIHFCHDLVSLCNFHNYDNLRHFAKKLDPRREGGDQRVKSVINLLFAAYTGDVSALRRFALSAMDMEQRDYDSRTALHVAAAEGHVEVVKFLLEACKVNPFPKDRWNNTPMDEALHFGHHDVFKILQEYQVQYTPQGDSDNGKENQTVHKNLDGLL
The following applies: HCT-116, filed as negative allosteric modulator, dose 100-300 nM, time 12.0 hrs.

The subject of series [9] is HCT-116. As to the kind of experiment: Induction of apoptosis in human HCT-116 cells assessed as early apoptotic cells at 50 nM measured after 24 hrs by Annexin V-FITC/PI staining based flow cytometry method (reference value: 4.65 %). The series is classed as functional.
Series [10] concerns HCT-116. Kind of series: Antitumor activity against human HCT-116 cells xenografted in BALB/c SPF mouse assessed as tumor growth inhibition at 50 mg/kg, ip administered BID for 21 days. The conditions noted are these: HCT-116, 504 h, time 21 day, read-out: TGI. The series is classed as functional.
Series [11] in a line: Cmax in Sprague-Dawley rat at 10 mg/kg, ip measured for 72 hrs by LC-MS/MS analysis. The series is classed as ADME, organism-based. On the set-up: dose 10 mg/kg, time 72 hrs, route ip. The following applies: in vivo.
The target of series [12] is T1, Glutaminase kidney isoform, mitochondrial (Homo sapiens). The conditions noted are these: filed as negative allosteric modulator.
Description: Binding affinity to human GLS1 assessed as stabilization of protein by measuring change in melting temperature by protein thermal shift assay
A short description of series [13]: AUC (0 to t) in Sprague-Dawley rat at 10 mg/kg, ip measured for 72 hrs by LC-MS/MS analysis. The series is classed as ADME, organism-based. On the set-up: time 72 hrs, dose 10 mg/kg, route ip. The conditions noted are these: in vivo.
Series [14] relates to MDA-MB-436. As to the kind of experiment: Antiproliferative activity against human MDA-MB-436 cells overexpressing GLS1 assessed as inhibition of cell proliferation measured after 72 hrs by MTT assay. It is filed as functional, cell-based. The following applies: MDA-MB-436, 72 h.
Series [15] is described as follows: Apparent volume of distribution in Sprague-Dawley rat at 5 mg/kg, iv measured for 72 hrs by LC-MS/MS analysis. It is filed as ADME, organism-based. The conditions noted are these: in vivo.
Series [16] in a line: Toxicity in nude mouse xenografted with human HCT-116 cells assessed as lung damage by measuring edema and atrophy at 50 to 100 mg/kg, ip measured after 21 days by H and E staining based analysis. It is filed as organism-based. The following applies: in vivo, 504 h, dose 50-100 mg/kg, time 21 day.

What is called IC50 is the concentration that inhibits the measured activity by half. What is called half-life is how long it takes for the measured level to halve. Broadly, the Cmax is the highest concentration seen after dosing. A word on the ΔTm: it is the shift of the melting midpoint relative to a reference. As usually defined, the AUC(0-t) is exposure summed from dosing to a finite time, without extrapolation to infinity. A higher AUC(0-t) goes with high exposure. A word on the Vd/F: it is the volume of distribution divided by bioavailability. For the compound `O=C(Cc1ccccc1)Nc1nnc(NC2CCN(c3nnc(NC(=O)c4nccn4Cc4ccc(C(F)(F)F)cc4)s3)CC2)s1`, the Activity is listed as 0.01% in series [1]; 82.49% in series [3]; “Non-Toxic” in [5]; 13.2% in series [7]; 23.4% in [9]; “Non-Toxic” in [16]. In addition, the IC50 in [2] came to 10.8 µM; in series [14], 370 nM. Moreover, in series [4], the inhibition in vivo at 100 mg/kg is 47.5%. Also, in [6], the half-life is 535 min. Moreover, the inhibition entry in [8] was “Active”. Besides, the inhibition in vivo at 50 mg/kg in series [10] was 35.5%. This compound displayed a Cmax in series [11] of 262 ng/mL. Besides, the ΔTm in series [12] is 14.9 °C. This compound came in with an AUC(0-t) at 72 h in series [13] of 2900 ng·h/mL. In addition, the Vd/F in series [15] stood at 7.31 L/kg.
